Measured values reported in the NIST ThermoML archive (doi:10.1016/j.jct.2003.11.008).

What was measured:
[1] = excess molar enthalpy (molar enthalpy of mixing); xn = mol fraction of the nth substance listed; conditions: 318.15 K, 101.3 kPa, Liquid
[2] = xn = mol fraction of the nth substance listed; conditions: 318.15 K, 101.3 kPa, Liquid

CCCCCCCCCCCCCCCCC [heptadecane] + CCCOC(C)=O
Conditions	excess molar enthalpy [kJ/mol]	excess molar volume [m3/mol]
[1], x2 = 0.0838	0.481	–
[1], x2 = 0.1596	0.871	–
[1], x2 = 0.2462	1.26	–
[1], x2 = 0.3255	1.55	–
[1], x2 = 0.3884	1.7	–
[1], x2 = 0.4477	1.82	–
[1], x2 = 0.4925	1.87	–
[1], x2 = 0.5313	1.89	–
[1], x2 = 0.5702	1.89	–
[1], x2 = 0.6288	1.83	–
[1], x2 = 0.6644	1.77	–
[1], x2 = 0.7023	1.69	–
[1], x2 = 0.7423	1.59	–
[1], x2 = 0.7826	1.45	–
[1], x2 = 0.8239	1.29	–
[1], x2 = 0.8654	1.1	–
[1], x2 = 0.9064	0.849	–
[1], x2 = 0.9452	0.579	–
[1], x2 = 0.9772	0.278	–
[2], x2 = 0.2332	–	8.02e-07
[2], x2 = 0.3167	–	1.017e-06
[2], x2 = 0.4087	–	1.166e-06
[2], x2 = 0.4759	–	1.235e-06
[2], x2 = 0.5393	–	1.28e-06
[2], x2 = 0.5977	–	1.276e-06
[2], x2 = 0.6463	–	1.246e-06
[2], x2 = 0.6916	–	1.225e-06
[2], x2 = 0.7628	–	1.103e-06
[2], x2 = 0.8202	–	9.42e-07
[2], x2 = 0.891	–	6.77e-07
[2], x2 = 0.9375	–	4.38e-07
[2], x2 = 0.9705	–	2.25e-07

CCCCCCCCCCCCCCCCC [heptadecane] + CCOC(C)=O
Conditions	excess molar enthalpy [kJ/mol]	excess molar volume [m3/mol]
[1], x2 = 0.0911	0.569	–
[1], x2 = 0.1754	1.03	–
[1], x2 = 0.2543	1.44	–
[1], x2 = 0.3274	1.73	–
[1], x2 = 0.394	1.95	–
[1], x2 = 0.4566	2.12	–
[1], x2 = 0.512	2.2	–
[1], x2 = 0.558	2.23	–
[1], x2 = 0.6007	2.22	–
[1], x2 = 0.634	2.19	–
[1], x2 = 0.6486	2.17	–
[1], x2 = 0.6818	2.11	–
[1], x2 = 0.7172	2.03	–
[1], x2 = 0.7538	1.94	–
[1], x2 = 0.7913	1.78	–
[1], x2 = 0.8271	1.64	–
[1], x2 = 0.8653	1.43	–
[1], x2 = 0.9018	1.2	–
[1], x2 = 0.9382	0.921	–
[1], x2 = 0.9719	0.507	–
[2], x2 = 0.1461	–	6.4e-07
[2], x2 = 0.2562	–	1.04e-06
[2], x2 = 0.3512	–	1.284e-06
[2], x2 = 0.4324	–	1.449e-06
[2], x2 = 0.5057	–	1.538e-06
[2], x2 = 0.5143	–	1.548e-06
[2], x2 = 0.5756	–	1.565e-06
[2], x2 = 0.5814	–	1.562e-06
[2], x2 = 0.6778	–	1.503e-06
[2], x2 = 0.7269	–	1.41e-06
[2], x2 = 0.7898	–	1.273e-06
[2], x2 = 0.8421	–	1.081e-06
[2], x2 = 0.903	–	7.83e-07
[2], x2 = 0.9457	–	5.1e-07
[2], x2 = 0.9685	–	3.18e-07

CCCCCCCCCCCCCCCCC [heptadecane] + COC(C)=O
Conditions	excess molar enthalpy [kJ/mol]	excess molar volume [m3/mol]
[1], x2 = 0.113	0.735	–
[1], x2 = 0.2193	1.37	–
[1], x2 = 0.3028	1.82	–
[1], x2 = 0.3894	2.18	–
[1], x2 = 0.4626	2.41	–
[1], x2 = 0.5247	2.54	–
[1], x2 = 0.5794	2.57	–
[1], x2 = 0.6278	2.54	–
[1], x2 = 0.6655	2.48	–
[1], x2 = 0.6858	2.43	–
[1], x2 = 0.7195	2.34	–
[1], x2 = 0.7539	2.21	–
[1], x2 = 0.7883	2.05	–
[1], x2 = 0.8246	1.86	–
[1], x2 = 0.861	1.67	–
[1], x2 = 0.8938	1.45	–
[1], x2 = 0.9264	1.21	–
[1], x2 = 0.9502	0.986	–
[1], x2 = 0.9763	0.606	–
[2], x2 = 0.0872	–	4.73e-07
[2], x2 = 0.1719	–	9e-07
[2], x2 = 0.2901	–	1.422e-06
[2], x2 = 0.3832	–	1.742e-06
[2], x2 = 0.4682	–	1.916e-06
[2], x2 = 0.5391	–	1.999e-06
[2], x2 = 0.5988	–	2.022e-06
[2], x2 = 0.6524	–	1.981e-06
[2], x2 = 0.694	–	1.916e-06
[2], x2 = 0.7348	–	1.806e-06
[2], x2 = 0.7632	–	1.698e-06
[2], x2 = 0.8016	–	1.579e-06
[2], x2 = 0.827	–	1.455e-06
[2], x2 = 0.8469	–	1.363e-06
[2], x2 = 0.8704	–	1.246e-06
[2], x2 = 0.9208	–	9.07e-07
[2], x2 = 0.9545	–	5.89e-07
[2], x2 = 0.9807	–	2.74e-07

COC(C)=O [methyl ethanoate] + CCCCCCC
Conditions	excess molar enthalpy [kJ/mol]	excess molar volume [m3/mol]
[1], x1 = 0.0778	0.571	–
[1], x1 = 0.1534	1.02	–
[1], x1 = 0.2251	1.39	–
[1], x1 = 0.2785	1.58	–
[1], x1 = 0.3445	1.78	–
[1], x1 = 0.4038	1.89	–
[1], x1 = 0.4555	1.93	–
[1], x1 = 0.5034	1.95	–
[1], x1 = 0.5451	1.93	–
[1], x1 = 0.5759	1.91	–
[1], x1 = 0.6498	1.79	–
[1], x1 = 0.6832	1.74	–
[1], x1 = 0.7322	1.63	–
[1], x1 = 0.7698	1.49	–
[1], x1 = 0.8184	1.31	–
[1], x1 = 0.873	1.05	–
[1], x1 = 0.9036	0.79	–
[1], x1 = 0.9534	0.45	–
[2], x1 = 0.096	–	6.73e-07
[2], x1 = 0.1583	–	9.83e-07
[2], x1 = 0.2293	–	1.293e-06
[2], x1 = 0.2947	–	1.495e-06
[2], x1 = 0.3534	–	1.597e-06
[2], x1 = 0.408	–	1.665e-06
[2], x1 = 0.4619	–	1.705e-06
[2], x1 = 0.5159	–	1.699e-06
[2], x1 = 0.5572	–	1.659e-06
[2], x1 = 0.6064	–	1.605e-06
[2], x1 = 0.6501	–	1.535e-06
[2], x1 = 0.6915	–	1.451e-06
[2], x1 = 0.7275	–	1.345e-06
[2], x1 = 0.7645	–	1.228e-06
[2], x1 = 0.8471	–	8.83e-07
[2], x1 = 0.9111	–	5.53e-07
[2], x1 = 0.9577	–	2.83e-07

CCCCCCCCC [nonane] + CCOC(C)=O
Conditions	excess molar enthalpy [kJ/mol]	excess molar volume [m3/mol]
[1], x2 = 0.0596	0.364	–
[1], x2 = 0.131	0.718	–
[1], x2 = 0.2117	1.06	–
[1], x2 = 0.295	1.32	–
[1], x2 = 0.3664	1.51	–
[1], x2 = 0.436	1.65	–
[1], x2 = 0.4899	1.7	–
[1], x2 = 0.5447	1.71	–
[1], x2 = 0.5881	1.67	–
[1], x2 = 0.6166	1.63	–
[1], x2 = 0.629	1.6	–
[1], x2 = 0.6629	1.56	–
[1], x2 = 0.7061	1.45	–
[1], x2 = 0.752	1.34	–
[1], x2 = 0.7991	1.16	–
[1], x2 = 0.8421	0.984	–
[1], x2 = 0.8875	0.742	–
[1], x2 = 0.9312	0.492	–
[1], x2 = 0.9672	0.247	–
[2], x2 = 0.0916	–	4.94e-07
[2], x2 = 0.1769	–	8.53e-07
[2], x2 = 0.2442	–	1.049e-06
[2], x2 = 0.3108	–	1.228e-06
[2], x2 = 0.3462	–	1.289e-06
[2], x2 = 0.4363	–	1.418e-06
[2], x2 = 0.4938	–	1.446e-06
[2], x2 = 0.5469	–	1.447e-06
[2], x2 = 0.5934	–	1.426e-06
[2], x2 = 0.6418	–	1.361e-06
[2], x2 = 0.6869	–	1.292e-06
[2], x2 = 0.7308	–	1.202e-06
[2], x2 = 0.7614	–	1.142e-06
[2], x2 = 0.8417	–	8.49e-07
[2], x2 = 0.9044	–	5.78e-07
[2], x2 = 0.9558	–	2.94e-07
